# Tests used:
# [1] = tested on: gummy stem blight of the watermelon; experiment: Greenhouse control experiment on gummy stem blight of watermelon; format: in vivo
# Excerpt: Embodiment 4: Field Control Experiment of Pydiflumetofen and the Thifluzamide on Gummy Stem Blight of Watermelon Control tests of gummy stem blight of watermelons were respectively conducted in 2020 and 2021. Test data in 2021 were collected as follows: the 18% Pydiflumetofen·Thifluzamide water dispersible granules, 20% Pydiflumetofen suspension, 30% Thifluzamide suspension and 25% Azoxystrobin suspension in embodiment 1 were respectively used in the experiment. The variety of the tested watermelon was “Zaojia 8424”; the test location was a watermelon greenhouse in Gangji experimental production base in Anhui Academy of Agricultural Sciences; water consumption per mu was 30 kg; the watermelons were subjected to agent control for the first time within 30 days after field planting of watermelon seedlings, and then subjected to agent control for the second time within 10 days after the first control; and disease condition survey was conducted within 30 days after the second agent control (Table 3).
# [2] = tested on: gummy stem blight of Trichosanthes kirilowii maxim; experiment: Field control experiment on gummy stem blight of Trichosanthes kirilowii maxim; format: in vivo
# Excerpt: Embodiment 3: Field Control Experiment of Pydiflumetofen and the Thifluzamide on Gummy Stem Blight of Trichosanthes kirilowii maxim
# Control tests of gummy stem blight of Trichosanthes kirilowii maxim were respectively conducted in 2020 and 2021. Test data in 2021 were collected as follows: the 20% Pydiflumetofen·Thifluzamide suspension, 20% Pydiflumetofen suspension, 30% Thifluzamide suspension and 25% Azoxystrobin suspension in embodiment 2 were respectively used in the experiment. The variety of the tested Trichosanthes kirilowii maxim was “Wanlou 9”; the test location was a Trichosanthes kirilowii maxim field in Gangji experimental production base in Anhui Academy of Agricultural Sciences; water consumption per mu was 30 kg; the Trichosanthes kirilowii maxim was subjected to agent control at an early stage of growing and flowering (May 20); and disease condition survey was conducted within 30 days (Table 2).
# [3] = tested on: Stagonosporopsis cucurbitacearum; experiment: Indoor toxicity test, hypha growth assay on drug-containing PDA plates; format: cell-based; conditions: hypha growth inhibition, 25° C.
# Description: Embodiment 1 Indoor toxicity test of Pydiflumetofen and the Thifluzamide on Stagonosporopsis cucurbitacearum
# Bactericidal properties of the Pydiflumetofen and the Thifluzamide were analyzed in detail. EC50 […] of two single components such as the Pydiflumetofen and the Thifluzamide (hereinafter referred to as agents) was tested first; a combination ratio of the two agents was set by a Wadley method according to the EC50 of the two single agents, and according to a Wadley synergistic coefficient SR value.
# A test object was Stagonosporopsis cucurbitacearum of melons, but was not limited herein. […] Hypha growth assay was adopted during the test; drug containing media were prepared according to different treatments; hypha blocks having a diameter of 5 mm were prepared on the edges of the pre-culture colonies by using the sterilized puncher and respectively transferred onto medium plates with different drug content; a colony diameter was tested by a crossing method; the colony diameter (mm) was measured; and a growth inhibition ratio was calculated by the following formula: […]
# Interaction of the mixture was evaluated according to the Wadley method; and a calculation formula was as follows: […]
# In the formula, a and b were content ratios of various components in the mixture; and a mixing effect was analyzed based on the value SR.
compound,measurement,setting,value
"CON(C(=O)c1cn(C)nc1C(F)F)C(C)Cc1c(Cl)cc(Cl)cc1Cl (racemic) [Pydiflumetofen, 3-(difluoromethyl)-N-methoxy-1-methyl-N-[(RS)-1-methyl-2-(2,4,6-trichlorophenyl)ethyl]pyrazol-4-formamide]",Control effect (in words),[1],significant control effects
same,Control effect (in words),[2],significant control effects
same,EC50,[3],0.0109 ppm
Cc1nc(C(F)(F)F)c(C(=O)Nc2c(Br)cc(OC(F)(F)F)cc2Br)s1 [Thifluzamide],Control effect (in words),[1],significant control effects
same,Control effect (in words),[2],significant control effects
same,EC50,[3],0.0451 ppm

# Source: US20230060350A1, “BACTERICIDAL COMPOSITION FOR CONTROLLING GUMMY STEM BLIGHT OF MELONS” (Institute of Plant Protection and Agro-products Safety, …, priority 2022, published 2023)
